Consider three molecules from patent US10485797B2, “Treatment of pemphigus” (Principia Biopharma Inc., priority 2014, dated 2019).

Data set [1] deals with pemphigus folliaceus. The data set can be described thus: Dog Pemphigus Foliaceus Study. Format: in vivo. Particulars: for overall efficacy and safety in treatment of PF: single agent. As for the experimental part:
A 30 kg Doberman dog with a characteristic first presentation of pemphigus folliaceus on the nose and paws was administered an oral dose of 500 mg daily of the BTK inhibitor (R,E)-2-(3-(4-amino-3-(2-fluoro-4-phenoxyphenyl)-1H-pyrazolo[3,4-d]-pyrimidin-1-yl)piperidine-1-carbonyl)-4,4-dimethylpent-2-enenitrile instead of the usual treatment for pemphigus of high dose corticosteroids (typically 1-2 mg/kg).
The dog responded clinically to the drug as a monotherapy within three days, with improved eating and ambulation noted by the owner.

The target of data set [2] is T1, BTK (Canis lupus familiaris, UniProt A0A8I3P3Z9).
T1 construct: from tissue; host or cells: blood of the treated Doberman dog
T1 sequence (A0A8I3P3Z9 1-664): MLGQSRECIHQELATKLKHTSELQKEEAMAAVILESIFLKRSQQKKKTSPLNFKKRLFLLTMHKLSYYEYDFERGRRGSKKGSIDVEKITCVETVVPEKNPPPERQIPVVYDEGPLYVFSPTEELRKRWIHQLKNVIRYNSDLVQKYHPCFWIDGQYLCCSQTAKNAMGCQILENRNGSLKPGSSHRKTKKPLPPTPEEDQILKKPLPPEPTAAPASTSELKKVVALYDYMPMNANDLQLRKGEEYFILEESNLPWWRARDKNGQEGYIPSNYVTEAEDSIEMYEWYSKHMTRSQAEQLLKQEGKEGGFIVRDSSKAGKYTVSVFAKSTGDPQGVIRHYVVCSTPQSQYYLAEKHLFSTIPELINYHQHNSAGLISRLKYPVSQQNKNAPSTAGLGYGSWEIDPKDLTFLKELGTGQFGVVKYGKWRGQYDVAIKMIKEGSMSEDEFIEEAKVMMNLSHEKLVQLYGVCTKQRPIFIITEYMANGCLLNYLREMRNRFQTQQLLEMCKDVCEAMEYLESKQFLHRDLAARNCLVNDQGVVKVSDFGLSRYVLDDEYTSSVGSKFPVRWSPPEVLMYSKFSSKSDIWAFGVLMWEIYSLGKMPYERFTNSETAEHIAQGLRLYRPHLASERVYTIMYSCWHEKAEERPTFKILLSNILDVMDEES
In words: BTK occupancy in blood of the treated dog. The class given is in vivo. To be noted: 30 kg Doberman dog, oral 500 mg daily; blood taken 24 hours after the first dose; read-out: level of BTK occupancy 24 hours after each dose.

For data set [3] the following is noted: cited from earlier work.
For data set [4] the following is noted: ANCA-associated vasculitis, cited from earlier work.
For data set [5] the following is noted: cited from earlier work; for onset of effect / clinical response / time of maximal effect: pemphigus vulgaris.

Read-outs that look alike come from different tables or passages of the source. Some results are limits rather than exact numbers.

`CC(C)(C)/C=C(\C#N)C(=O)N1CCC[C@@H](n2nc(-c3ccc(Oc4ccccc4)cc3F)c3c(N)ncnc32)C1` [(R,E)-2-(3-(4-amino-3-(2-fluoro-4-phenoxyphenyl)-1H-pyrazolo[3,4-d]-pyrimidin-1-yl)piperidine-1-carbonyl)-4,4-dimethylpent-2-enenitrile]: in data set [1] (dog PF), the “manifestation of clinical response compared with systemic corticosteroid therapy” value is “as rapid and comparable to that observed with systemic corticosteroid therapy”. Moreover, in data set [1] (dog PF, oral 500 mg daily), the “corticosteroid-like adverse effects (polyuria, polydipsia, polyphagia or weight gain)” value is “none and No well-known corticosteroid-like adverse effects”. The “skin lesions by four weeks” value in data set [1] (dog PF, oral 500 mg daily, four weeks) is “completely healed”. In addition, the “time to clinical response (improved eating and ambulation)” value in data set [1] (dog PF, oral 500 mg daily, monotherapy) was “three”. The “clinical status at one week follow up visit” value in data set [1] (dog PF, oral 500 mg daily, one week) is “improved general health and commencement of pemphigus lesion healing”. In addition, the “clinical status after two weeks of treatment” value in data set [1] (dog PF, oral 500 mg daily, two weeks) is “general health of the dog was excellent and skin lesions continued to improve”. Also, the “overall efficacy and safety in treatment of PF” value in data set [1] was “effective and safe”; in data set [1] (listed as (R, E)-2-(3-(4-amino-3-(2-fluoro-4-phenoxyphenyl)-1H-pyrazolo[3,4-d]-pyrimidin-1))), “rapidly control dog PF”. Moreover, the receptor occupancy at 500 mg in data set [2] is roughly 70%.

Belimumab: an anti-Blys antibody: the “patients able to reduce corticosteroid use to <7.5 mg of prednisone” value in data set [3] (chronic SLE, week 40-52) is given as ≤ 21% of patients (Benlysta US Product. Also, in data set [3], the “effect on improvement of chronic SLE” value is “modest and delayed effect on improvement”.

Turning to “Rituximab: anti-CD20 antibody rituximab, approved for treatment of B cell malignancies”, in data set [4] (despite concomitant use of corticosteroids for 5 months), the cases achieving remission result was “in only 64% of cases despite concomitant use”. In addition, the onset of effect result in data set [4] is “Rituximab has delayed effect in ANCA-”. Besides, the “side effects in treated patients” value in data set [5] (patients treated with rituximab) is “serious side effects such as pneumonia”. In data set [5], the “onset of effect / clinical response” value is reported as “Rituximab has delayed effect in pemphigus” and the “time of maximal effect” value is “vulgaris with maximal effect at 8-12 weeks”. For the same molecule, in data set [5] (listed as rituximab), the “onset of effect / clinical response” value is “significant delay in clinical response” and the “time of maximal effect” value was 8-12 weeks.
